Measured values from ChEMBL document CHEMBL5303304, “EUbOPEN Chemogenomics Library - IncuCyte” (2023).

Tests used:
Assay type in all cases: toxicity, cell-based
HEK-293T = test: Incucyte cell viability with HEK293T; settings: human, 10 µM, compound concentration 10 uM
Fibroblast = test: Incucyte cell viability with human fibroblast; settings: 10 µM, compound concentration 10 uM
U2OS = test: Incucyte cell viability with U2OS; settings: human, 10 µM, compound concentration 10 uM
Also: unitless GR value; below 1 slowed growth and below 0 cell loss.

Compound | Growth Rate (HEK-293T; 6 h, replicate number 1) | Growth Rate (HEK-293T; 12 h, replicate number 1) | Growth Rate (HEK-293T; 12 h, replicate number 2) | Growth Rate (HEK-293T; 18 h, replicate number 1) | Growth Rate (HEK-293T; 18 h, replicate number 2) | Growth Rate (HEK-293T; 24 h, replicate number 1) | Growth Rate (HEK-293T; 24 h, replicate number 2) | Growth Rate (Fibroblast; 6 h, replicate number 2) | Growth Rate (Fibroblast; 12 h, replicate number 2) | Growth Rate (Fibroblast; 18 h, replicate number 2) | Growth Rate (Fibroblast; 24 h, replicate number 2) | Growth Rate (U2OS; 0 h, replicate number 2) | Growth Rate (U2OS; 6 h, replicate number 2) | Growth Rate (U2OS; 12 h, replicate number 1) | Growth Rate (U2OS; 18 h, replicate number 1) | Growth Rate (U2OS; 18 h, replicate number 2) | Growth Rate (U2OS; 24 h, replicate number 1) | Growth Rate (U2OS; 24 h, replicate number 2) | Growth Rate (HEK-293T; 6 h, replicate number 2) | Growth Rate (U2OS; 0 h, replicate number 1) | also measured
O=C(Nc1ccccc1Cl)c1cnc2ccc(C3CCNCC3)cn12.O=C(O)C(=O)O | -0.96 | -0.83 | -0.61 | -0.53 | -0.27 | -0.28 | -0.03 | -1 | -0.49 | 0.05 | 0.33 | -1 | 0.06 | 0.46 | 0.62 | 0.61 | 0.64 | 0.59 | – | – | Growth Rate (Fibroblast; 18 h, replicate number 1): -0.51; Growth Rate (Fibroblast; 24 h, replicate number 1): -0.36; Growth Rate (U2OS; 6 h, replicate number 1): -0.44; Growth Rate (U2OS; 12 h, replicate number 2): 0.5
O=C(NNC(=O)c1ccc(CNS(=O)(=O)c2ccc(F)c(Cl)c2)cc1)c1ccccc1 | 0.34 | 0.48 | 0.64 | 0.31 | 0.87 | 0.36 | 0.83 | -0.76 | – | 0.85 | – | 0.85 | – | – | 0.97 | – | – | – | 0.59 | 0.67 | Growth Rate (Fibroblast; 0 h, replicate number 1): -0.42; Growth Rate (Fibroblast; 0 h, replicate number 2): -1; Growth Rate (Fibroblast; 18 h, replicate number 1): 0.64
O=S(=O)(Nc1nncs1)c1cc(Cl)c(Oc2ccc(C(F)(F)F)cc2-c2ccnn2C2CNC2)cc1F | 0.2 | – | – | – | – | – | – | – | – | – | – | -0.77 | 0.95 | – | 0.95 | 1 | 0.86 | 0.98 | – | 0.61 | Growth Rate (Fibroblast; 18 h, replicate number 1): 0.41
Cc1cc(O)c(-c2ccc([C@@H](C)CN(C)C)cc2)c2c1[nH]c(=O)c1sccc12 | -0.94 | -0.89 | -0.74 | -0.72 | -0.54 | -0.64 | -0.41 | -0.58 | -0.46 | -0.35 | -0.3 | -0.95 | – | 0.42 | 0.16 | 0.08 | -0.11 | -0.1 | -0.93 | -0.87 | Growth Rate (Fibroblast; 0 h, replicate number 1): 0.34; Growth Rate (Fibroblast; 0 h, replicate number 2): 0.6; Growth Rate (Fibroblast; 6 h, replicate number 1): -1; Growth Rate (Fibroblast; 24 h, replicate number 1): 0.28; Growth Rate (U2OS; 12 h, replicate number 2): 0.43
CC(C)n1cnc2c(Nc3cccc(Cl)c3)nc(N[C@H]3CCCC[C@@H]3N)nc21 | -0.96 | -0.82 | -0.59 | -0.56 | -0.35 | -0.46 | -0.25 | -0.94 | -0.16 | -0.01 | 0.13 | – | 0.88 | -0.26 | -0.12 | -0.25 | -0.14 | -0.2 | -0.92 | -1 | Growth Rate (Fibroblast; 6 h, replicate number 1): -1; Growth Rate (U2OS; 6 h, replicate number 1): 0.85; Growth Rate (U2OS; 12 h, replicate number 2): -0.22
CCOC(=O)c1cnn(-c2ccc(NC(=O)C(Cl)=C(Cl)Cl)cc2)c1C(F)(F)F | -0.63 | -0.5 | -0.37 | -0.51 | -0.25 | -0.51 | -0.13 | -1 | -0.86 | -0.7 | -0.57 | 0.55 | 0.04 | -0.42 | -0.49 | -0.43 | -0.43 | -0.42 | -0.52 | -0.17 | Growth Rate (Fibroblast; 12 h, replicate number 1): -1; Growth Rate (U2OS; 6 h, replicate number 1): -0.33; Growth Rate (U2OS; 12 h, replicate number 2): -0.46
Cl.Cl.N#Cc1ccc(O[C@@H]2c3ccccc3C[C@H]2N2CCC[C@@H](N)C2)c(Cl)c1 | -0.97 | -0.93 | -0.24 | -0.77 | -0.13 | -0.66 | -0.04 | 0.35 | 0.27 | 0.29 | 0.37 | – | – | 0.7 | 0.67 | 0.86 | 0.72 | 0.93 | -0.57 | -1 | Growth Rate (Fibroblast; 6 h, replicate number 1): -1; Growth Rate (U2OS; 12 h, replicate number 2): 0.96
CC(C)(C)c1ccc(NC(=O)N2CCN(c3ncccc3Cl)CC2)cc1 | -0.72 | -0.41 | 0.06 | -0.12 | 0.09 | -0.21 | 0.17 | – | – | – | 0.87 | – | – | 0.89 | 0.88 | – | 0.99 | – | -0.47 | – | Growth Rate (Fibroblast; 0 h, replicate number 2): -0.81; Growth Rate (Fibroblast; 6 h, replicate number 1): 0.2; Growth Rate (Fibroblast; 18 h, replicate number 1): 0.84
Cl.Cl.NC1(c2ccc(-c3nc4ccn5c(=O)[nH]nc5c4cc3-c3ccccc3)cc2)CCC1 | -0.64 | -0.64 | -0.42 | -0.54 | -0.27 | -0.48 | -0.24 | -1 | -0.83 | -0.54 | -0.32 | – | – | – | – | – | 1 | – | -0.68 | – | Growth Rate (Fibroblast; 6 h, replicate number 1): -0.87; Growth Rate (Fibroblast; 12 h, replicate number 1): -1
CCN1CCN(Cc2ccc(NC(=O)c3ccc(C)c(Oc4ccnc5[nH]ccc45)c3)cc2C(F)(F)F)CC1.Cl.Cl.Cl.O | -0.97 | -0.89 | -0.8 | -0.7 | -0.55 | -0.63 | -0.43 | – | 0.02 | -0.03 | -0.05 | -0.97 | 0.57 | 0.84 | 0.36 | 0.15 | 0.17 | 0.04 | -0.99 | -0.12 | Growth Rate (Fibroblast; 6 h, replicate number 1): -0.67; Growth Rate (Fibroblast; 12 h, replicate number 1): -1; Growth Rate (U2OS; 12 h, replicate number 2): 0.38
Cc1ccc(-c2c(C(=O)CF)n(CCCO)c3ncnc(N)c23)cc1 | -0.57 | 0.54 | 0.68 | 0.96 | 0.85 | – | 0.87 | -1 | -0.21 | 0.3 | 0.41 | -0.79 | 0.44 | 0.92 | – | 0.96 | – | 0.98 | 0.16 | 0.43 | Growth Rate (Fibroblast; 18 h, replicate number 1): 0.29; Growth Rate (Fibroblast; 24 h, replicate number 1): 0.33
CNC(=O)c1ccc2c(c1)NC(=O)/C2=C(\Nc1ccc(CN2CCCCC2)cc1)c1ccccc1.Cl.O | – | – | – | – | 0.71 | 1 | 0.54 | – | – | – | 0.78 | – | – | 0.94 | 0.82 | – | 0.89 | – | 0.72 | -1 | Growth Rate (Fibroblast; 0 h, replicate number 1): -1
CCN1CCN(Cc2ccc(NC(=O)c3ccc(C)c(NC(=O)c4cncc(-c5cccs5)c4)c3)cc2C(F)(F)F)CC1 | -0.97 | -0.9 | -0.83 | -0.73 | -0.61 | -0.6 | -0.41 | -1 | -0.76 | -0.54 | -0.41 | -0.23 | -0.47 | -0.52 | -0.59 | -0.53 | -0.6 | -0.55 | -0.99 | -0.74 | Growth Rate (Fibroblast; 0 h, replicate number 2): -0.99; Growth Rate (Fibroblast; 18 h, replicate number 1): -0.92; Growth Rate (Fibroblast; 24 h, replicate number 1): -0.74; Growth Rate (U2OS; 6 h, replicate number 1): -0.87; Growth Rate (U2OS; 12 h, replicate number 2): -0.42
